Experiment: recombinant UMI read abundance after kanamycin selection (control-corrected) (log10(CPM+1)); higher = more efficient recombination; extreme values may be limits of the assay; sequences stand for … in AGTGCAGAGAAAATCGGCCAGTTTTCTCTGCCTGCAGTCCGCATGCCGTGGGACCCCTTGGGTTCTAACCTGTTGCCTAGATTTATGCAGCGGACTGCCTTTCTCCCAAAGTGATAAACCGG…AGGTTGGTTTCACT; site = the 11-nt donor
Outline: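 Under IPTG (0.07 mM) plus kanamycin, or without selection, Escherichia coli carrying a UMI-tagged donor and donor-binding-loop pair library and a target plasmid for the IS621 bridge recombinase were plated in two replicates. Recombinant UMIs were PCR-amplified across the donor–target junction and sequenced. Counts were converted to CPM, averaged over replicates, scaled by control-derived factors and reported as log10(CPM+1).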
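Note: IS621 bridge recombinase in Escherichia coli cells against a fixed T5 target plasmid.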

| Sequence | recombinant UMI read abundance (log10) |
| --- | --- |
| CAAGTCACATGGACCGGTTTTCCCGGTAATCCGTATTTGTT (site CAAGTCACTAA) | 2.2 |
| CAATACACATGGACCGGTTTTCCCGGTAATCCGTATTTGCA (site CAATACACTTG) | 2.2 |
| CAATACCCATGGACCGGTTTTCCCGGTAATCCGTATTTGCT (site CAATACCCTAG) | 1.93 |
| CAATACCCATGGACCGGTTTTCCCGGTAATCCGTATTTGCT (site CAATCCCCTAG) | 1.55 |
| CAATACCCATGGACCGGTTTTCCCGGTAATCCGTATTTGCT (site CAATGCCCTAG) | 0.00435 |
| CAATACCCATGGACCGGTTTTCCCGGTAATCCGTATTTGCT (site CAATTCCCTAG) | 0 |
| CAATAGCCATGGACCGGTTTTCCCGGTAATCCGTATTTGCC (site CAATAGCCTGG) | 0.755 |
| CAATATCCATGGACCGGTTTTCCCGGTAATCCGTATTTGTT (site CAATATCCTAA) | 1.7 |
| CAATCAGCATGGACCGGTTTTCCCGGTAATCCGTATTTGCT (site CAAACAGCTAG) | 0 |
| CAATCAGCATGGACCGGTTTTCCCGGTAATCCGTATTTGCT (site CAACCAGCTAG) | 0.798 |
| CAATCAGCATGGACCGGTTTTCCCGGTAATCCGTATTTGCT (site CAAGCAGCTAG) | 0.0241 |
| CAATCAGCATGGACCGGTTTTCCCGGTAATCCGTATTTGCT (site CAATCAGCTAG) | 0.199 |
| CAATCCTCATGGACCGGTTTTCCCGGTAATCCGTATTTGAA (site CAATACTCTTT) | 1.33 |
| CAATCCTCATGGACCGGTTTTCCCGGTAATCCGTATTTGAA (site CAATCCTCTTT) | 1.98 |
| CAATCCTCATGGACCGGTTTTCCCGGTAATCCGTATTTGAA (site CAATGCTCTTT) | 0.00935 |
| CAATCCTCATGGACCGGTTTTCCCGGTAATCCGTATTTGAA (site CAATTCTCTTT) | 0 |
| CAATGAGCATGGACCGGTTTTCCCGGTAATCCGTATTTGGG (site AAATGAGCTCC) | 0.0303 |
| CAATGAGCATGGACCGGTTTTCCCGGTAATCCGTATTTGGG (site CAATGAGCTCC) | 0.779 |
| CAATGAGCATGGACCGGTTTTCCCGGTAATCCGTATTTGGG (site GAATGAGCTCC) | 0.00334 |
| CAATGAGCATGGACCGGTTTTCCCGGTAATCCGTATTTGGG (site TAATGAGCTCC) | 0.0682 |
| CAATGCCCATGGACCGGTTTTCCCGGTAATCCGTATTTGCT (site CAATACCCTAG) | 1.74 |
| CAATGCCCATGGACCGGTTTTCCCGGTAATCCGTATTTGCT (site CAATCCCCTAG) | 0.246 |
| CAATGCCCATGGACCGGTTTTCCCGGTAATCCGTATTTGCT (site CAATGCCCTAG) | 1.34 |

| Sequence | recombinant UMI read abundance (log10) |
| --- | --- |
| CAATGCCCATGGACCGGTTTTCCCGGTAATCCGTATTTGCT (site CAATTCCCTAG) | 0 |
| CAATGCGCATGGACCGGTTTTCCCGGTAATCCGTATTTGAA (site CAATGCACTTT) | 1.15 |
| CAATGCGCATGGACCGGTTTTCCCGGTAATCCGTATTTGAA (site CAATGCCCTTT) | 0.0173 |
| CAATGCGCATGGACCGGTTTTCCCGGTAATCCGTATTTGAA (site CAATGCGCTTT) | 1.9 |
| CAATGCGCATGGACCGGTTTTCCCGGTAATCCGTATTTGAA (site CAATGCTCTTT) | 0.823 |
| CAATGCTCATGGACCGGTTTTCCCGGTAATCCGTATTTGAC (site CAATGCTCTAT) | 0.737 |
| CAATGCTCATGGACCGGTTTTCCCGGTAATCCGTATTTGAC (site CAATGCTCTCT) | 0.051 |
| CAATGCTCATGGACCGGTTTTCCCGGTAATCCGTATTTGAC (site CAATGCTCTGT) | 3.03 |
| CAATGCTCATGGACCGGTTTTCCCGGTAATCCGTATTTGAC (site CAATGCTCTTT) | 1.28 |
| CAATGCTCATGGACCGGTTTTCCCGGTAATCCGTATTTGAT (site CAATGCTCTAT) | 2.87 |
| CAATGCTCATGGACCGGTTTTCCCGGTAATCCGTATTTGAT (site CAATGCTCTCT) | 0.607 |
| CAATGCTCATGGACCGGTTTTCCCGGTAATCCGTATTTGAT (site CAATGCTCTGT) | 1.36 |
| CAATGCTCATGGACCGGTTTTCCCGGTAATCCGTATTTGAT (site CAATGCTCTTT) | 0.993 |
| CAATTAACATGGACCGGTTTTCCCGGTAATCCGTATTTGTT (site CAATTAACTAA) | 0.00834 |
| CAATTCCCATGGACCGGTTTTCCCGGTAATCCGTATTTGCT (site AAATTCCCTAG) | 0 |
| CAATTCCCATGGACCGGTTTTCCCGGTAATCCGTATTTGCT (site CAAATCCCTAG) | 0.763 |
| CAATTCCCATGGACCGGTTTTCCCGGTAATCCGTATTTGCT (site CAACTCCCTAG) | 1.16 |
| CAATTCCCATGGACCGGTTTTCCCGGTAATCCGTATTTGCT (site CAAGTCCCTAG) | 1.05 |
| CAATTCCCATGGACCGGTTTTCCCGGTAATCCGTATTTGCT (site CAATACCCTAG) | 0.712 |
| CAATTCCCATGGACCGGTTTTCCCGGTAATCCGTATTTGCT (site CAATCCCCTAG) | 0.539 |
| CAATTCCCATGGACCGGTTTTCCCGGTAATCCGTATTTGCT (site CAATGCCCTAG) | 0 |
| CAATTCCCATGGACCGGTTTTCCCGGTAATCCGTATTTGCT (site CAATTACCTAG) | 0 |
| CAATTCCCATGGACCGGTTTTCCCGGTAATCCGTATTTGCT (site CAATTCACTAG) | 0 |

| Sequence | recombinant UMI read abundance (log10) |
| --- | --- |
| CAATTCCCATGGACCGGTTTTCCCGGTAATCCGTATTTGCT (site CAATTCCCTAA) | 0.188 |
| CAATTCCCATGGACCGGTTTTCCCGGTAATCCGTATTTGCT (site CAATTCCCTAC) | 0.184 |
| CAATTCCCATGGACCGGTTTTCCCGGTAATCCGTATTTGCT (site CAATTCCCTAG) | 0.879 |
| CAATTCCCATGGACCGGTTTTCCCGGTAATCCGTATTTGCT (site CAATTCCCTAT) | 1.61 |
| CAATTCCCATGGACCGGTTTTCCCGGTAATCCGTATTTGCT (site CAATTCCCTCG) | 0.178 |
| CAATTCCCATGGACCGGTTTTCCCGGTAATCCGTATTTGCT (site CAATTCCCTGG) | 0 |
| CAATTCCCATGGACCGGTTTTCCCGGTAATCCGTATTTGCT (site CAATTCCCTTG) | 0.615 |
| CAATTCCCATGGACCGGTTTTCCCGGTAATCCGTATTTGCT (site CAATTCGCTAG) | 0.00609 |
| CAATTCCCATGGACCGGTTTTCCCGGTAATCCGTATTTGCT (site CAATTCTCTAG) | 2.13 |
| CAATTCCCATGGACCGGTTTTCCCGGTAATCCGTATTTGCT (site CAATTGCCTAG) | 0 |
| CAATTCCCATGGACCGGTTTTCCCGGTAATCCGTATTTGCT (site CAATTTCCTAG) | 0 |
| CAATTCCCATGGACCGGTTTTCCCGGTAATCCGTATTTGCT (site CACTTCCCTAG) | 0.171 |
| CAATTCCCATGGACCGGTTTTCCCGGTAATCCGTATTTGCT (site CAGTTCCCTAG) | 0 |
| CAATTCCCATGGACCGGTTTTCCCGGTAATCCGTATTTGCT (site CATTTCCCTAG) | 0 |
| CAATTCCCATGGACCGGTTTTCCCGGTAATCCGTATTTGCT (site CCATTCCCTAG) | 1.17 |
| CAATTCCCATGGACCGGTTTTCCCGGTAATCCGTATTTGCT (site CGATTCCCTAG) | 0 |
| CAATTCCCATGGACCGGTTTTCCCGGTAATCCGTATTTGCT (site CTATTCCCTAG) | 0 |
| CAATTCCCATGGACCGGTTTTCCCGGTAATCCGTATTTGCT (site GAATTCCCTAG) | 0 |
| CAATTCCCATGGACCGGTTTTCCCGGTAATCCGTATTTGCT (site TAATTCCCTAG) | 0.428 |
| CAATTCGCATGGACCGGTTTTCCCGGTAATCCGTATTTGCT (site CAATTCACTAG) | 1.08 |
| CAATTCGCATGGACCGGTTTTCCCGGTAATCCGTATTTGCT (site CAATTCCCTAG) | 0 |
| CAATTCGCATGGACCGGTTTTCCCGGTAATCCGTATTTGCT (site CAATTCGCTAG) | 0.564 |

From the supplement of paper PMC11208160
